Structures can show the parent of a compound that is named as a salt.
System: HCT116
Assay: efficacy (fitted maximal change in viability relative to DMSO control); higher = less cytotoxic (negative = loss of viability)
Settings: 48 h
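Further: Luminescence-based viability readout, five doses per compound, normalized against on-plate DMSO and empty-well controls, followed by dose-response curve fitting for every drug.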

Compound	efficacy [%]
CN(C)C(=O)c1cc2cnc(Nc3ccc(N4CCNCC4)cn3)nc2n1C1CCCC1 [Ribociclib (LEE011)]	-12.5
CC1=CC/2=C(C=C1C)N(C[C@@H](O)[C@@H](O)[C@@H](O)CO)C/3=N/C(=O)NC(=O)C3=N2 [Riboflavin]	-9.8
CO[C@H]1/C=C/O[C@@]2(C)Oc3c(C)c(O)c4c(O)c(c(/C=N/N5CCN(C)CC5)c(O)c4c3C2=O)NC(=O)/C(C)=C\C=C\[C@H](C)[C@H](O)[C@@H](C)[C@@H](O)[C@@H](C)[C@H](OC(C)=O)[C@@H]1C [Rifampicin]	-20.5
CO[C@H]1/C=C/O[C@@]2(C)Oc3c(C)c(O)c4c(O)c(c(/C=N\N5CCN(C6CCCC6)CC5)c(O)c4c3C2=O)NC(=O)/C(C)=C\C=C\[C@H](C)[C@H](O)[C@@H](C)[C@@H](O)[C@@H](C)[C@H](OC(C)=O)[C@@H]1C [Rifapentine]	-59.1
CO[C@H]1/C=C/O[C@@]2(C)Oc3c(C)c(O)c4c(O)c(c5c(nc6cc(C)ccn65)c4c3C2=O)NC(=O)/C(C)=C\C=C\[C@H](C)[C@H](O)[C@@H](C)[C@@H](O)[C@@H](C)[C@H](OC(C)=O)[C@@H]1C [Rifaximin]	-88.6
C1C\N=C(\NC(C2CC2)C3CC3)O1 [Rilmenidine]	-6.97
COC(=O)N(C)c1c(N)nc(-c2nn(Cc3ccccc3F)c3ncccc23)nc1N [Riociguat]	-5.69
C[C@H]1CNCCCN1[S+](=O)([O-])c1cccc2cncc(F)c12 [Ripasudil]	-11
O=P(O)(O)C(O)(Cc1cccnc1)P(=O)(O)[O][Na] (stereo unspecified) [Risedronate sodium]	-16.1
CC(NCCc1ccc(O)cc1)C(O)c1ccc(O)cc1 (stereo unspecified) [Ritodrine hydrochloride]	-19.4
O=C(NC[C@H]1CN(c2ccc(N3CCOCC3=O)cc2)C(=O)O1)c1ccc(Cl)s1 [Rivaroxaban]	-24.9
C[N]1C=C(C2=C1C=CC=C2)\C3=C(\C(=O)NC3=O)C4=C5CC(CN)CC[N]5C6=C4C=CC=C6 (stereo unspecified) [Ro-31-8425]	-33.7
COc1cc(C(C)C)c(Oc2cnc(NC(CO)CO)nc2N)cc1I [Ro-51]	7.2
O=C(C[C@@H]1C/C=C\CCC(=O)O[C@H](c2ccccc2)CNC1=O)NCc1ccc(Cl)cc1 [Robotnikinin]	-22.6
C=CC[N+]1([C@H]2C[C@H]3[C@@H]4CC[C@H]5C[C@H](O)[C@@H](N6CCOCC6)C[C@]5(C)[C@H]4CC[C@]3(C)[C@H]2OC(C)=O)CCCC1 [Rocuronium bromide]	-14.6
C[S+]([O-])(=O)C1=CC=C(C=C1)C/2=C(/C(=O)OC2)C3=CC=CC=C3 [Rofecoxib]	-13.7
O=C(Nc1c(Cl)cncc1Cl)c1ccc(OC(F)F)c(OCC2CC2)c1 [Roflumilast]	-20.6
COc1ccc(C2CNC(=O)C2)cc1OC1CCCC1 (stereo unspecified) [Rolipram]	-7.4
CCCn1c(=O)c2[nH]c(C34CC5CC3C[C@@H](C5)C4)nc2n(CCC)c1=O [Rolofylline]	-6.71
CN(C1=CC=CC=C1)C(=O)C/2=C(O)/C3=C(C=CC=C3)N(C)C2=O [Roquinimex]	-11.9
CN(CCOc1ccc(CC2SC(=O)NC2=O)cc1)c1ccccn1 (stereo unspecified) [Rosiglitazone]	-13.8
CC(=O)c1c(O)c(C)c(O)c(Cc2c(O)c3c(c(C(=O)/C=C/c4ccccc4)c2O)OC(C)(C)C=C3)c1O [Rottlerin]	-8.89
CCOC(=O)/C=C/[C@H](C[C@@H]1CCNC1=O)NC(=O)[C@@H](CC(=O)[C@@H](NC(=O)c1cc(C)on1)C(C)C)Cc1ccc(F)cc1 [Rupintrivir]	-12.7
CC(C)(C)c1cc(C(=O)O)c(NC(=O)Nc2ccc3[nH]ncc3c2)s1 [S6K-18]	-16.6

Compound	efficacy [%]
Cc1ccc([S+](=O)([O-])OCC(=O)Nc2ccc(C(=O)O)c(O)c2)cc1 [S31-201]	-5.21
CC(C)Nc1cc(C(F)(F)F)cc2nc(NC(=O)c3cccnc3)nn12 [S-99]	-15
C[C@@H]1COCCN1C\2=C\C(=O)N\3CC[C@H](N(CC4=CN=CC(=C4)Cl)C3=N2)C(F)(F)F [SAR-405]	-26.6
O=[S+]([O-])(CC1CS1)c1ccc(Oc2ccccc2)cc1 (stereo unspecified) [SB-3CT]	-55.8
O=C(CO)N1CCC(c2n[nH]c(-c3ccc(Cl)cc3)c2-c2ccncn2)CC1 [SD-06]	17.8
NC(=O)c1ccc2[nH]ccc2c1 [SD-169]	-11.3
Fc1ccc(Cl)cc1-c1nc(Nc2ccncc2)c2nccnc2n1 [SD-208]	-22.5
O=C(NCC(=O)N1CCCC1)Nc1ccc2cnccc2c1 [SGC-707]	-18
Cc1cc(C)cc(Oc2ccc(CNC(=O)[C@H](C)N)cc2C)c1 [SGC-2085]	-101
Cn1cc(-c2ccc3nnc(Sc4ccc5ncccc5c4)n3n2)cn1 [SGX-523]	-6.72
CC1(N)CCN(c2cnc(-c3cccc(Cl)c3Cl)c(N)n2)CC1 [SHP-099]	-5.94
Cc1cccc(-c2n[nH]cc2-c2ccc3ncccc3n2)n1 [SJN-2511]	6.89
Oc1ccc(Nc2nc(-c3ccc(Cl)cc3)cs2)cc1 [SKI-II]	-62.8
Cc1ccc(NC(=O)Nc2nnc(Sc3ncnc4cc(OCCCN5CCOCC5)ccc34)s2)cc1 [SKLB4771]	-24.1
CC1OC(OC/2=C(/OC3=C(C(=CC(=C3)O)O)C2=O)C4=CC=C(O)C=C4)C(O)C(OC(C)=O)C1OC(C)=O (stereo unspecified) [SL-0101-1]	6.12
O=C1NC(=O)/C(=C/c2cccc(C(F)(F)F)c2)S1 [SMI-4a]	-22.5
CC1(C)CC(=O)c2c(C(F)(F)F)nn(-c3ccc(C(N)=O)c(NC4CCC(O)CC4)c3)c2C1 (stereo unspecified) [SNX-2112]	-53.8
CC1(C)CC(=O)c2c(C(F)(F)F)nn(-c3ccc(C(N)=O)c(NC4CCC(OC(=O)CN)CC4)c3)c2C1 (stereo unspecified) [SNX-5422]	-57.9
Cc1c(C)n(Cc2ccc(-c3ccccc3C(=O)O)cc2)c2ccc(C(=O)N[C@@H](C)c3ccc([N+](=O)[O-])cc3)cc12 [SR-1664]	14.2
Fc1cccc(-n2cnc3c(NCc4nc5ccc(F)c(F)c5[nH]4)nc(N4CCOCC4)nc32)c1 [SR-3029]	-53.1
Cc1cc(C)c([S+](=O)([O-])N(CCc2cccc(Br)c2)Cc2ccc(-c3cccc([S+](C)(=O)[O-])c3)cc2)c(C)c1 [SR-9243]	15.4
COCCCc1sc(-c2ccccc2)nc1C(=O)Nc1ccccc1-c1nc2cc(CN3CCCC3)cnc2s1 [SRT-3025]	7.71
CC1=C(F)C=CC(=C1)N2C(=O)\C=C/C3=C2C4=C([NH]C=C4)N=C3 [STK16-IN-1]	-45.7
Cc1c[nH]c(/C=C2\C(=O)Nc3ccccc32)c1CCC(=O)O [SU-5402]	-32.1

Compound	efficacy [%]
CC(C)(C)NCC(O)c1ccc(O)c(CO)c1 (stereo unspecified) [Salbutamol sulfate]	-14.1
OCc1ccccc1O[C@@H]1O[C@H](CO)[C@@H](O)[C@H](O)[C@H]1O [Salicin]	14
CC(C)=CCC/C(C)=C/CC/C(C)=C/CSc1ccccc1C(=O)O [Salirasib]	-28.8
CNC(=O)CN1CCC(Oc2cc3c(Nc4cccc(Cl)c4F)ncnc3cc2OC)CC1 [Sapitinib]	-49.3
OC(=O)\C1=C\N(C2=CC=C(F)C=C2)C3=C(C=C(F)C(=C3)N4CCNCC4)C1=O [Sarafloxacin hydrochloride]	14
C[C@@H](c1ccc2nccn2c1)n1nnc2ncc(-c3cnn(C)c3)nc21 [Savolitinib]	-32.1
N#C[C@@H]1C[C@@H]2C[C@@H]2N1C(=O)[C@@H](N)C12CC3CC(CC(O)(C3)C1)C2 [Saxagliptin]	-9.01
COc1nc(-c2ccc3c(c2)OCO3)n(-c2ccc(NC(=O)CSc3ccccc3)cc2)n1 [Secin H3]	-15.5
Cc1ncc([N+](=O)[O-])n1CC(C)O (stereo unspecified) [Secnidazole]	-13.5
COc1cc(C[C@@H](CO)[C@H](CO)Cc2ccc(O)c(OC)c2)ccc1O [Secoisolariciresinol]	9
CC(C)[C@H](O)C(=O)N[C@@H](C)C(=O)N[C@@H]1C(=O)N(C)CCc2ccccc21 [Semagacestat]	-9.53
Cc1cc(C)c(/C=C2\C(=O)Nc3ccccc32)[nH]1 [Semaxanib]	-29.1
C\C1=C(/C)C(=O)\C(=C(\C)C1=O)C(CCCCCC(O)=O)C2=CC=CC=C2 (stereo unspecified) [Seratrodast]	-11.8
CC(C)[C@](O)(c1ccc2cc(OC(F)F)c(OC(F)F)cc2c1)c1c[nH]nn1 [Seviteronel]	-56.2
CC(C)=CC[C@@H](O)C/1=C/C(=O)C2=C(O)C=CC(=C2C1=O)O [Shikonin]	-13.1
CC(C)CC(N(C)C)C1(c2ccc(Cl)cc2)CCC1 (stereo unspecified) [Sibutramine hydrochloride]	-45.3
COc1cc([C@H]2Oc3cc([C@H]4Oc5cc(O)cc(O)c5C(=O)[C@@H]4O)ccc3O[C@@H]2CO)ccc1O [Silybin]	-13.3
COC/1=C/[C@@H]2[C@@H]3CC4=C(C(=C(OC)C=C4)O)[C@]2(CCN3C)CC1=O [Sinomenine]	-20.7
CO[C@H]1C[C@@H]2CC[C@@H](C)[C@@](O)(O2)C(=O)C(=O)N2CCCC[C@H]2C(=O)O[C@H]([C@@H](C)C[C@@H]2CC[C@@H](O)[C@H](OC)C2)CC(=O)[C@H](C)/C=C(\C)[C@@H](O)[C@@H](OC)C(=O)[C@H](C)C[C@H](C)/C=C/C=C/C=C/1C [Sirolimus]	-50.3
Cc1cc2c(cc1CC(=O)c1sccc1[S+](=O)([O-])Nc1onc(C)c1Cl)OCO2 [Sitaxentan]	-43.1
O=C([O-])C(O)Cc1ccc(O)c(O)c1 (stereo unspecified) [Sodium Danshensu]	-9.88
OC(COC1=C2C(=O)\C=C(/OC2=CC=C1)C([O-])=O)COC3=C4C(=O)\C=C(/OC4=CC=C3)C([O-])=O [Sodium cromoglycate]	-6.55
CC(C)OC(=O)[C@H](C)N[P@](=O)(OC[C@H]1O[C@@H](N2\C=C/C(=O)NC2=O)[C@](C)(F)[C@@H]1O)OC3=CC=CC=C3 [Sofosbuvir]	-5.68

— the supplement of paper PMC10290057
